Here are results for 76 molecules from ChEMBL document CHEMBL3045379, “Synthesis and Fungicidal Activity of 3-1, 2, 4-Thiadiazolines” (J Pestic Sci, 1992).

The source made the active and inactive calls. No cut-off for these calls is given here.

The first data set deals with Pseudoperonospora cubensis. Nature of the data set: Fungicidal activity against Pseudoperonospora cubensis infected cucumber cv. Sagamihanjiro seedling assessed as inhibition of zoospore liberation from zoosporangia after 4 days by microscopic analysis in presence of cysteine. Type of data set: functional, organism-based.
Conditions: not given
With `Cn1s/c(=N/c2ccc(Cl)cc2)nc1-c1ccccc1`, the inhibition result was “inactive”.

Tested on in the next data set: not listed separately
In words: Chemical stability of the compound in ethanol solution after 1 week. Type of data set: physicochemical. The conditions noted are these: 168 h.
In the case of `Cn1s/c(=N/c2ccc(Cl)cc2)nc1-c1ccccc1`, the Stability entry was “Stable”.

The test system of another data set is Pseudoperonospora cubensis. In words: Fungicidal activity against Pseudoperonospora cubensis infected cucumber cv. Sagamihanjiro seedling assessed as inhibition of zoospore liberation from zoosporangia after 4 days by microscopic analysis. The class given is functional, organism-based.
Conditions: not given
Consider `Cn1s/c(=N/c2ccc(Cl)cc2)nc1-c1ccccc1`, for which the inhibition result is “Active”.

Tested on in the next data set: not listed separately
In words: Chemical stability of the compound in THF solution after 1 day. The class given is physicochemical. The conditions noted are these: 24 h.
In the case of `Cn1s/c(=N/c2ccc(Cl)cc2)nc1-c1ccccc1`, the Stability entry is given as “Unstable”.

Tested on in the next data set: not listed separately
Nature of the data set: Chemical stability of the compound in acetonitrile solution after 1 day. The class given is physicochemical. The note with it: 24 h.
For `Cn1s/c(=N/c2ccc(Cl)cc2)nc1-c1ccccc1`, the Stability entry is “Unstable”.

Tested on in a further data set: not listed separately
Nature of the data set: Chemical stability of the compound in acetone solution after 1 day. Type of data set: physicochemical. The note with it: 24 h.
With `Cn1s/c(=N/c2ccc(Cl)cc2)nc1-c1ccccc1`, the Stability entry is reported as “Unstable”.

The subject of a further data set is Pseudoperonospora cubensis. Nature of the data set: Fungicidal activity against Pseudoperonospora cubensis infected in cucumber cv. Sagamihanjiro seedling assessed as reduction in leaf lesion after 4 days by pot test. Type of data set: functional, organism-based.
Conditions: not given
For the molecule `Clc1ccc(/N=c2\nc3n(s2)CCCS3)cc1`, the EC50 is over 400 ppm.
Turning to `Clc1ccc(/N=c2\nc3n(s2)CCS3)cc1`, the EC50 is 68.6 ppm.
With `CCCn1s/c(=N/c2ccc(Cl)cc2)nc1-c1ccccc1`, the EC50 was determined as 9.9 ppm.
Still for that read-out and setting: then `Br.CC/N=c1\nc(-c2ccccc2)n(CC)s1`, with over 400 ppm; and `Cn1s/c(=N/c2ccc(Cl)cc2)nc1-c1ccc(Cl)c(Cl)c1`, with 9.5 ppm; and `CC1(C)Cn2s/c(=N/c3ccc(Cl)cc3)nc2S1`, with 35.5 ppm.
As for `CN(C)C(=O)n1s/c(=N/c2ccc(Cl)cc2)nc1-c1ccccc1`, the EC50 was determined as 87.5 ppm.
Turning to `Cc1cccc(/N=c2\nc(-c3ccc(Cl)cc3)n(C)s2)c1`, the EC50 worked out at 26.1 ppm.
The same measure, in the same setting: next, `CCN(CC)c1n/c(=N\c2ccc(Cl)cc2)sn1C`: 13.1 ppm.
On the same count and under the same terms, next, `Cc1cc(C)cc(/N=c2\nc(-c3ccc(Cl)cc3)n(C)s2)c1`: 26.4 ppm; `CCc1n/c(=N\c2ccc(Cl)cc2)sn1C`: 352.6 ppm.
On the same count and under the same terms, next, `Cn1o/c(=N/c2ccc(Cl)cc2)nc1-c1ccc(Cl)cc1`: over 400 ppm; `COc1ccc(-c2n/c(=N\c3ccc(Cl)cc3)sn2C)cc1`: 132.7 ppm; `Cn1s/c(=N/c2ccc(-c3ccccc3)cc2)nc1-c1ccccc1`: 23.1 ppm.
`Cc1ccc(/N=c2\nc(-c3ccccc3)n(C)s2)cc1`: the EC50 stood at 60.2 ppm.
Still for that read-out and setting: next, `Clc1ccc(/N=c2\nc(-c3ccc(Cl)cc3)n(Cc3ccccc3)s2)cc1`: 43.3 ppm; `Cn1s/c(=N/c2ccc(Cl)cc2)nc1-c1ccco1`: 8.4 ppm.
On the same count and under the same terms, next, `Br.Cn1s/c(=N/C2CCCCC2)nc1-c1ccccc1`: over 400 ppm; `CC(C)c1n/c(=N\c2ccc(Cl)cc2)sn1C`: 252.7 ppm.
Same read-out and setting: next, `CCCn1s/c(=N/c2ccc(C)cc2)nc1-c1ccccc1`: 141.5 ppm; `Cn1s/c(=N/c2ccc(Cl)cc2)nc1-c1ccccc1Cl`: 11.6 ppm.
Turning to `Cn1s/c(=N/c2ccccc2)nc1-c1ccc(Cl)cc1`, the EC50 was determined as 23.4 ppm.
With `COc1ccc(/N=c2\nc(-c3ccc(Cl)cc3)n(C)s2)cc1`, the EC50 was found to be 11 ppm.
Same read-out and setting: next, `Cn1s/c(=N/c2ccc(Br)cc2)nc1-c1ccc(Cl)cc1`: 12 ppm; `C/N=C(/N=c1\snc(-c2ccccc2)n1-c1ccc(Cl)cc1)c1ccccc1`: 45.3 ppm; `CN(c1ccccc1)c1n/c(=N\c2ccc(Cl)cc2)sn1C`: 37.5 ppm.
Take `CCCc1ccc(/N=c2\nc(-c3ccc(Cl)cc3)n(C)s2)cc1`: the EC50 is given as 23.8 ppm.
Same read-out and setting: next, `Cn1s/c(=N/c2ccc(Cl)cc2)nc1-c1ccc([N+](=O)[O-])cc1`: 29.7 ppm.
Regarding `COc1n/c(=N\c2ccc(Cl)cc2)sn1C`, the EC50 is listed as over 400 ppm.
As to `Cn1s/c(=N/c2ccc(Cl)cc2)nc1-c1ccc(Cl)cc1`, the EC50 came to 7.2 ppm.
Regarding `Cc1cccc(C)c1/N=c1\nc(-c2ccccc2)n(C)s1`, the EC50 came to 128.1 ppm.
`Cn1s/c(=N/C(=O)c2ccc(Cl)cc2)nc1-c1ccc(Cl)cc1`: the EC50 is listed as 400 ppm.
`CCn1s/c(=N/c2cccc([N+](=O)[O-])c2)nc1-c1ccccc1`: the EC50 came to 63.1 ppm.
For the molecule `CCn1s/c(=N/c2ccc(Cl)cc2)nc1-c1ccccc1`, the EC50 is recorded as 13.6 ppm.
In the case of `CCOc1n/c(=N\c2ccc(Cl)cc2)sn1C`, the EC50 was found to be 308.1 ppm.
The same measure, in the same setting: then `Cc1ccc(-c2n/c(=N\c3ccc(Cl)cc3)sn2C)cc1`, with 37.4 ppm; and `Cc1ccc(/N=c2\nc(-c3ccc(Cl)cc3)n(C)s2)cc1`, with 9.2 ppm; and `Cn1s/c(=N/c2ccccc2)nc1-c1ccccc1`, with 45.3 ppm.
As to `CC(C)n1s/c(=N/c2ccc(Cl)cc2)nc1-c1ccccc1`, the EC50 turned out to be 72.9 ppm.
As for `Clc1ccc(/N=c2\nc(-c3ccc(Cl)cc3)n(-c3ccccc3)s2)cc1`, the EC50 is recorded as over 400 ppm.
On the same count and under the same terms, next, `CCn1s/c(=N/c2cc(Cl)cc(Cl)c2)nc1-c1ccc(Cl)cc1`: 86.7 ppm.
As to `Cc1ccc(/N=c2\nc(-c3ccc(Cl)cc3)n(C)s2)cc1C`, the EC50 came out at 13.2 ppm.
For the molecule `Cn1s/c(=N/c2ccc(Cl)c(Cl)c2)nc1-c1ccc(Cl)cc1`, the EC50 was 24.7 ppm.
Still for that read-out and setting: next, `CCc1ccc(/N=c2\nc(-c3ccc(Cl)cc3)n(C)s2)cc1`: 21.8 ppm; `Cn1s/c(=N/c2ccc(Cl)cc2)nc1C(Cl)(Cl)Cl`: 37 ppm; `Cn1s/c(=N/c2ccc(Cl)cc2)nc1Cc1ccccc1`: 79.1 ppm.
Still for that read-out and setting: next, `Cn1s/c(=N/c2ccc(Br)cc2)nc1-c1ccc(Cl)cc1Cl`: 131.1 ppm; `Cn1s/c(=N/c2ccc(O)cc2)nc1-c1ccccc1`: 39.6 ppm.
Same read-out and setting: then `Cn1s/c(=N/c2ccc(C(C)(C)C)cc2)nc1-c1ccc(Cl)cc1`, with 14 ppm.
Turning to `C/N=C(/N=c1\ssc(=S)n1-c1ccc(Cl)cc1)c1ccccc1`, the EC50 amounted to 84.1 ppm.
The same measure, in the same setting: next, `Cn1s/c(=N/c2ccc(Br)cc2)nc1-c1ccccc1`: 17.9 ppm; `CCOC(=O)C1CN(c2ccc(Cl)cc2)/C(=N/C(=N/C)c2ccccc2)S1` (stereo not drawn): 92.8 ppm; `CN(C)c1ccc(/N=c2\nc(-c3ccc(Cl)cc3)n(C)s2)cc1`: 141.5 ppm.
Regarding `Cn1s/c(=N/c2ccc(Cl)cc2)nc1-c1ccccc1`, the EC50 was 5.7 ppm.
Take `Cc1n/c(=N\c2ccc(Cl)cc2)sn1C`: the EC50 amounted to 66.9 ppm.
The same measure, in the same setting: next, `Cn1s/c(=N/c2ccc(Cl)cc2)nc1SCc1ccccc1`: 46.2 ppm; `Cn1s/c(=N/c2ccc(Nc3ccccc3)cc2)nc1-c1ccccc1`: 81 ppm; `Clc1ccc(Nc2nc(-c3ccccc3)ns2)cc1`: “Not Active”.
For the molecule `Cn1s/c(=N/c2ccc(Cl)cc2)nc1-c1cc(Cl)cc(Cl)c1`, the EC50 came out at 66.8 ppm.
Regarding `C/N=C(/N=c1\sn(-c2ccccc2)c(=S)n1-c1ccc(Cl)cc1)c1ccccc1`, the EC50 is 33.6 ppm.
For `Cn1s/c(=N/c2ccc([N+](=O)[O-])cc2)nc1-c1ccccc1`, the EC50 is reported as over 400 ppm.
As for `Cn1s/c(=N/c2ccccc2-c2ccccc2)nc1-c1ccccc1`, the EC50 turned out to be 30.4 ppm.
As for `CCCCc1ccc(/N=c2\nc(-c3ccc(Cl)cc3)n(C)s2)cc1`, the EC50 is listed as 30.4 ppm.
Consider `Cn1s/c(=N/c2ccc(F)cc2)nc1-c1ccc(Cl)cc1`, for which the EC50 is 22.1 ppm.
Still for that read-out and setting: then `Cn1s/c(=N/c2ccc(Cl)cc2)nc1-c1cccc(Cl)c1`, with 25.2 ppm; and `Cn1s/c(=N/c2ccc(I)cc2)nc1-c1ccccc1`, with 100 ppm; and `CCSc1n/c(=N\c2ccc(Cl)cc2)sn1C`, with 36.2 ppm.
On to `Cc1cccc(/N=c2\nc(-c3ccc(Cl)cc3)n(C)s2)c1C`, for which the EC50 is 25 ppm.
As to `Cn1s/c(=N/c2ccc(Cl)cc2Cl)nc1-c1ccccc1`, the EC50 stood at 63.4 ppm.
Same read-out and setting: next, `CN(C)c1n/c(=N\c2ccc(Cl)cc2)sn1C`: 52.5 ppm.
Same read-out and setting: then `Cn1s/c(=N/c2ccc(Oc3ccc(Cl)cc3)cc2)nc1-c1ccccc1`, with 31.9 ppm; and `Cn1s/c(=N/c2cccc(Cl)c2Cl)nc1-c1ccc(Cl)cc1`, with 179 ppm.
For the molecule `CSc1n/c(=N\c2ccc(Cl)cc2)sn1C`, the EC50 was determined as 94.9 ppm.
On the same count and under the same terms, then `CCn1s/c(=N/c2ccc(Cl)cc2)nc1-c1ccc(Cl)cc1`, with 80.4 ppm; and `CCn1s/c(=N/c2ccc(Br)cc2)nc1-c1ccccc1`, with 70.2 ppm; and `Cn1s/c(=N/c2cccc(Cl)c2)nc1-c1ccc(Cl)cc1`, with 25.9 ppm.

The species named for the next data set is Homo sapiens. In words: Inhibition of ADH (unknown origin) at 3 ug/ml after 1 hr.
Conditions: not given
Consider `Cn1s/c(=N/c2ccc(Cl)cc2)nc1-c1ccccc1`, for which the inhibition entry is “Active”.
